Data set [1] deals with T1, human prolyl hydroxylase 2 (PHD2) (Homo sapiens, UniProt Q9GZT9).
T1 construct: (181-426); made in house
Kind of data set: Fluorescence polarization (FP) competition assay of PHD2. The note with it: purified compounds, 20 nM PHD2 (181-426), 30 nM probe, Cheng-Prusoff, mean±SD, read-out: Ki, binding affinity for PHD2. As to the method:
2.1 Fluorescence polarization (FP) competition assay of PHD2 [4]
FP assays were performed using a SPARK Multi-Mode Microplate Reader (Tecan) with excitation and emission filters appropriate for the fluorophore used in the binding experiment. Fluorescence polarization experiments were performed in 384-well, flat bottom, black assay plates (#3575, Corning) in a final volume of 60 µL. The final assay buffer contained: 30 nM fluorescence Probe, 20 nM PHD2 (181-426), 10 mM HEPES, pH 7.4, 150 mM NaCl, 0.05% Tween-20, and at the 1% DMSO (except for DMSO tolerance experiments, in which different DMSO concentrations were used as indicated). All plates measured in fluorescence polarization assays were incubated for a minimum of 30 min at RT. Fluorescence polarization was measured from the top of the well with a Tecan SPARK plate reader with polarized filters and optical modules for fluorescein (λex = 485 nm ± 25 nm, λem = 535 nm ± 25 nm). The standard error of the mean (SEM) values, were calculated by dividing the sample standard deviation by the square root of the sample size and are recorded as ± values for IC 50. Dose-dependent experiments were performed in th e same manner using at least 10 concentrations of the test compounds in 3 -fold serial dilutions from 100 µM. For each assay, negative controls (equivalent to 0% displacement) contained the fluorescent ligand, PHD2 (181 -426), and 20 µL FP buffer; blank cont rols contained only the fluorescent ligand and 40 µL buffer.
The reaction mixtures were incubated at RT for 60 min, then total fluorescence and fluorescence polarization measurements wer e taken. The percentage inhibition was calculated using Equation 1, where mPfree is the signal for the free probe (blank control) and mPbound is the signal for the bound probe (negative control).
IC50s were determined for duplicate measurements by non-linear least-squares analysis using GraphPad Prism 8.0.
The Ki values of the inhibitors were calculated using the Cheng-Prusoff equation.[5] Cheng-Prusoff equation: Ki = IC50 / (1 + [L]/Kd)
The Kd value was determined using a constant concentration of probe and titrating with PHD2 protein at increasing concentrations. [L] represents the concentration of the […] used in the FP assay. […]
(In fluorescence polarisation assays a small probe gives low polarisation when free and higher when bound to something large.)

For data set [2], the system named is EPO gene expression in Hep3B cells. Kind of data set: RT-qPCR assay of EPO mRNA. Type of data set: cell-based, human. The note with it: reference gene HPRT. In general terms: Quantitative PCR measures a nucleic acid by following its amplification.
The nature of data set [3]: Metabolic stability in mouse liver microsomes. In kind it is in vitro ADME.
Data set [4] can be described thus: Metabolic stability in human liver microsomes. Type of data set: in vitro ADME. In general terms: Microsomes from liver hold many membrane-bound enzymes, among them those of drug oxidation.
Another data set is described as follows: Plasma stability (rat). Type of data set: in vitro ADME. The note with it: 100 μM. The procedure: (§1) A structure of PHD2 in complex with Fe and a 2OG competing inhibitor (PDB ID: 4KBZ) was obtained from PDB website. The structure files of protein and compounds for docking were prepared using the Discovery Studio (DS) 2020 software. A water molecule HOH624, conserved in the active binding site of PHD2, was retained during the docking. Residues of PHD2 around the native ligand (radius = 10 Å) were defined as the binding sites for docking. Subsequently, the ligand was removed; the Fe (II) was retained during the docking. Compounds were docked into the binding sites using GOLD 5.1. Docking procedures were performed using the default setting with 100 genetic algorithm (GA) runs of ligands. […]
(§2) 17 was preincubated with microsomes from different species (0.5 mg/mL) at 1 μM for 5 min at 37 °C in 100 mM PBS buffer (pH 7.4). […] The samples were centrifuged at 5000 rpm f or 10 min; the supernatants were then analyzed by HPLC. […]
(§3) Representative compounds and Roxadustat were formulated in normal saline solution. […] Subsequently, these samples were analyzed for reticulocytes in the center for new drug safety evaluation and research of China Pharmaceutical University (ADVIA 2120 hematology system). […]
(§4) Plasma EPO was evaluated using the erythropoietin quantikine ELISA kit for mice (MEP00B). […]
(§5) in normal saline solution. […] Plasma was collected by centrifugation at 3000 rpm, these plasmas were detected by E PO […]

In data set [5] the test system is reticulocytes in C57BL/6J mice. Kind of data set: In vivo reticulocytes increased assay. Also on record: species or system mouse. The procedure: as §1, §2, §3, §4, §5
In data set [6] the test system is plasma EPO in C57BL/6J mice. Kind of data set: In vivo EPO increased assay (plasma EPO ELISA). Details: species or system mouse. The note with it: C57BL/6J mice, 10, 20 and 50 mg kg−1 po, 4 hours. The procedure: as §1, §2, §3, §4, §5
The nature of data set [7]: Acute oral toxicity assay. Type of data set: in vivo. Conditions: both sexes, mouse, in vivo, 400 mg·kg-1; ICR mice, single oral administration.
The subject of another data set is ICR mice. Kind of data set: Acute oral toxicity assay. In kind it is in vivo. The note with it: 400 mg kg−1 oral, once.
The mark [8] stands for this setting: pH 7.4, read-out: t1/2 in liver microsomes.

T1 sequence (Q9GZT9 181-426): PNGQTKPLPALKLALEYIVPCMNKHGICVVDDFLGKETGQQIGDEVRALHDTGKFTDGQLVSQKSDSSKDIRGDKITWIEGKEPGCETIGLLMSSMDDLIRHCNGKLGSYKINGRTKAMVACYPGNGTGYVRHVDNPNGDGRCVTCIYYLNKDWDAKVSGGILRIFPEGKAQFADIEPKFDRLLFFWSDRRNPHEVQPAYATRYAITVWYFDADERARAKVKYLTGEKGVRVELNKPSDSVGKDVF

As usually defined, the Ki is the dissociation constant of the complex between target and ligand, obtained from inhibition or displacement. As usually defined, the LD50 is the dose at which mortality reaches 50%. A high value points to a less toxic substance. On to `O=C(N/N=C/c1cccc(O)c1Cl)c1cnc(-c2cccnn2)[nH]c1=O` [compound 17], for which the Ki in data set [1] came to 27 ± 2 nM. The “EPO mRNA expression by RT-qPCR” value in [2] is “increases EPO mRNA in a concentration‐dependent manner with comparable efficiency to Roxadustat”. For the same compound, the “compound present (remaining) in liver microsomes” value in [3] (after 50 min, 1 μM, 0.5 mg/mL) is reported as greater than 80%; in [4] (after 50 min, 1 μM, 0.5 mg/mL), greater than 80%. Moreover, the half-life at 1 μM in data set [3] (setting [8]) and in [4] (setting [8]) was greater than 1.67 h in each case. Further, in the data set “Plasma stability (rat)”, the plasma stability entry is reported as “stable in rat plasma”. Further, the reticulocyte induction entry in data set [5] (C57BL/6J male mice, 20 mg kg−1 po, three administrations, 72 h) was “superior with respect to inducing reticulocytes compared to the other tested ISISS compounds”. For the same compound, in data set [5] (C57BL/6J mice, 5, 10 and 20 mg kg−1 po), the “changes in reticulocytes, multiple doses” value is “dose‐dependent increase in reticulocytes”. Also, the “plasma EPO response” value in data set [6] is reported as “dose‐dependent induction of EPO, similarly to Roxadustat”. For the same compound, the LD50 in [7] was greater than 400 mg/kg. Also, the “acute oral toxicity findings (body weight, organ/body weight ratio, ALT, AST, BUN, CRE)” value in the data set on ICR mice is “no obvious abnormality”.

For the origin of these results see article PMC9827864, “In Situ Inhibitor Synthesis and Screening by Fluorescence Polarization: An Efficient Approach for Accelerating Drug Discovery” (Angewandte Chemie (International Ed. in English), 2022).
